# US9828379B2 (priority 2013, dated 2017)
# Like-named read-outs stand apart in the source and are kept apart here.
# Experiments:
# MAGL [1] = target: T1, MAGL (Mus musculus, UniProt O35678); assay: biochemical
# T1 sequence (O35678 1-303): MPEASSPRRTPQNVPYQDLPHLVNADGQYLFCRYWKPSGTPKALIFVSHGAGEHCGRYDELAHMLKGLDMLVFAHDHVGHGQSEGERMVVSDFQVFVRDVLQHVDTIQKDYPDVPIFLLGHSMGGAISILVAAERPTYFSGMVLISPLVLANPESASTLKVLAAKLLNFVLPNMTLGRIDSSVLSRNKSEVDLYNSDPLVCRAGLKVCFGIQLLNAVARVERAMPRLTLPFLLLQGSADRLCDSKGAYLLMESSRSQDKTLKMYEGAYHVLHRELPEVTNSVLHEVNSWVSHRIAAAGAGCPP
# MAGL [2] = target: T1, MAGL; assay: In vitro competitive activity-based protein profiling (Table 2, % inhibition at 1 μM); assay type: biochemical; conditions: read-out: % Inhibition at 1 μM MAGL
# Experimental: After 30 min, FP—Rh (1.0 μL, 50 μM in DMSO) was added and the mixture was incubated for another 30 min at 37° C. Reactions were quenched with SDS loading buffer (50 μL-4×) and run on SDS-PAGE.
# Cell lysates were diluted with mock proteomes for use in competitive ABPP experiments.
# ABHD6 [3] = target: T2, ABHD6 (Mus musculus, UniProt Q8R2Y0); assay: biochemical; conditions: in vitro competitive ABPP
# T2 sequence (Q8R2Y0 1-336): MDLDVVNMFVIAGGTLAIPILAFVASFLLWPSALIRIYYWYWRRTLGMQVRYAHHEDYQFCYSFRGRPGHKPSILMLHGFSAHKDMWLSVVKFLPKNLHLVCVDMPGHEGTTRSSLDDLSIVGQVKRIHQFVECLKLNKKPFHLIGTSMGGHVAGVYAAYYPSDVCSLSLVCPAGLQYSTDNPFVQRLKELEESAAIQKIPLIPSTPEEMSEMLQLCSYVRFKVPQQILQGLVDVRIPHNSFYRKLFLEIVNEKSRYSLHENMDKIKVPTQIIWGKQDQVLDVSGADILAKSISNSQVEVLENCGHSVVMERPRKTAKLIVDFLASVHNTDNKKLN
# ABHD6 [4] = target: T2, ABHD6; assay: In vitro competitive activity-based protein profiling (Table 2, % inhibition at 1 μM); assay type: biochemical; conditions: read-out: % Inhibition at 1 μM ABHD6
# FAAH [5] = target: T3, FAAH (Mus musculus, UniProt O08914); assay: as above; assay type: biochemical; conditions: read-out: % Inhibition at 1 μM FAAH
# T3 sequence (O08914 1-579): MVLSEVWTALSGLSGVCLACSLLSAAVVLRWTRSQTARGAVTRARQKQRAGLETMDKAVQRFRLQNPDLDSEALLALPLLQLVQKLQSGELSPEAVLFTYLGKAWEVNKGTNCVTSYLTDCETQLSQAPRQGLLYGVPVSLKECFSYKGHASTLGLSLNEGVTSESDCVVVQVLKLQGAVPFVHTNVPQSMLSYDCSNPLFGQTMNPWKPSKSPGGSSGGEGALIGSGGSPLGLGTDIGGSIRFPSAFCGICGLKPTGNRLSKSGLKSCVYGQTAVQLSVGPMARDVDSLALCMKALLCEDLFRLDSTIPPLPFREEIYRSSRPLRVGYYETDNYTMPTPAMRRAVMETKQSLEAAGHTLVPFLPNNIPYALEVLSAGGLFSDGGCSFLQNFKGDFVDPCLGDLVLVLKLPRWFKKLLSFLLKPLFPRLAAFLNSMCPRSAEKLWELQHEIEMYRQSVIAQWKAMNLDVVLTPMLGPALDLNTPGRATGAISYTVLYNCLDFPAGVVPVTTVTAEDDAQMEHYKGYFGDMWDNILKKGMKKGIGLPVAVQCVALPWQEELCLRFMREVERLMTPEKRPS
# FAAH [6] = target: T3, FAAH; assay: biochemical; conditions: in vitro competitive ABPP
# [7] = mouse, in vitro competitive ABPP, read-out: Mouse (IC50 value, nM) MAGL
Structure (SMILES),IC50 (MAGL [1]; [7]) [nM],inhibition at 1 µM (MAGL [2]) [%],IC50 (ABHD6 [3]) [nM],inhibition at 1 µM (ABHD6 [4]) [%],inhibition at 1 µM (FAAH [5]) [%],IC50 (FAAH [6]) [nM],IC50 (MAGL [1]) [nM]
"O=C(OC(C(F)(F)F)C(F)(F)F)N1CC2CN(Cc3c(N4CC5COCC5C4)cccc3C(F)(F)F)CC2C1 (stereo not drawn) [Example 209, 1,1,1,3,3,3-hexafluoropropan-2-yl 5-(2-(tetrahydro-1H-furo[3,4-c]pyrrol-5(3H)-yl)-6-(trifluoromethyl)benzyl)hexahydropyrrolo[3,4-c]pyrrole-2(1H)-carboxylate]",100 to 1000,> 75,1000 to 10000,25 to 75,< 25,> 10000,–
"Cc1c(CN2CC3CN(C(=O)OC(C(F)(F)F)C(F)(F)F)CC3C2)cccc1N1CCN(C)CC1 (stereo not drawn) [Example 154, 1,1,1,3,3,3-hexafluoropropan-2-yl 5-[[2-methyl-3-(4-methylpiperazin-1-yl)phenyl]methyl]-octahydropyrrolo[3,4-c]pyrrole-2-carboxylate]",100 to 1000,> 75,1000 to 10000,< 25,< 25,> 10000,–
"CCN1CCN(c2c(C)cccc2CN2CC3CN(C(=O)OC(C(F)(F)F)C(F)(F)F)CC3C2)CC1 (stereo not drawn) [Example 148, 1,1,1,3,3,3-hexafluoropropan-2-yl 5-[[2-(4-ethylpiperazin-1-yl)-3-methylphenyl]methyl]-octahydropyrrolo[3,4-c]pyrrole-2-carboxylate]",100 to 1000,> 75,1000 to 10000,< 25,< 25,> 10000,–
"O=C(ON1C(=O)CCC1=O)N1CC2CN(Cc3ccc(Cl)cc3N3CC4CCC(C3)O4)CC2C1 (stereo not drawn) [Example 81, 2,5-Dioxopyrrolidin-1-yl 5-(2-(8-oxa-3-azabicyclo[3.2.1]octan-3-yl)-4-chlorobenzyl)hexahydropyrrolo[3,4-c]pyrrole-2(1H)-carboxylate]",–,25 to 75,1000 to 10000,25 to 75,< 25,1000 to 10000,100 to 1000
"CC(=O)N1CCN(c2ccc(CN3CC4CN(C(=O)OC(C(F)(F)F)C(F)(F)F)CC4C3)c(Cl)c2)CC1 (stereo not drawn) [Example 28, 1,1,1,3,3,3-Hexafluoropropan-2-yl 5-[[4-(4-acetylpiperazin-1-yl)-2-chlorophenyl]methyl]-octahydropyrrolo[3,4-c]pyrrole-2-carboxylate]",< 100,> 75,1000 to 10000,< 25,25 to 75,100 to 1000,–
"O=C(ON1C(=O)CCC1=O)N1CC2CN(Cc3ccc(N4CCOCC4)cc3C(F)(F)F)CC2C1 (stereo not drawn) [Example 85, 2,5-Dioxopyrrolidin-1-yl 5-[[4-(morpholin-4-yl)-2-(trifluoromethyl)phenyl]methyl]-octahydropyrrolo[3,4-c]pyrrole-2-carboxylate]",100 to 1000,> 75,1000 to 10000,< 25,25 to 75,100 to 1000,–
"O=C(ON1C(=O)CCC1=O)N1CC2CN(Cc3ccc(Cl)cc3N3CCOC4CCCC43)CC2C1 (stereo not drawn) [Example 82, 2,5-Dioxopyrrolidin-1-yl 5-(4-chloro-2-(hexahydrocyclopenta[b][1,4]oxazin-4(4aH)-yl)benzyl)hexahydropyrrolo[3,4-c]pyrrole-2(1H)-carboxylate]",100 to 1000,25 to 75,1000 to 10000,25 to 75,< 25,1000 to 10000,–
"Cc1cc(CN2CC3CN(C(=O)OC(C(F)(F)F)C(F)(F)F)CC3C2)n(C(C)C)n1 (stereo not drawn) [Example 59, 1,1,1,3,3,3-Hexafluoropropan-2-yl 5-[[3-methyl-1-(propan-2-yl)-1H-pyrazol-5-yl]methyl]-octahydropyrrolo[3,4-c]pyrrole-2-carboxylate]",100 to 1000,> 75,1000 to 10000,25 to 75,25 to 75,1000 to 10000,–
"O=C(OC(C(F)(F)F)C(F)(F)F)N1CC2CN(Cc3cccc(N4CCC5(CCOC5)C4)c3Cl)CC2C1 (stereo not drawn) [Example 48, 1,1,1,3,3,3-Hexafluoropropan-2-yl 5-[(2-chloro-3-[2-oxa-7-azaspiro[4.4]nonan-7-yl]phenyl)methyl]-octahydropyrrolo[3,4-c]pyrrole-2-carboxylate]",< 100,> 75,1000 to 10000,< 25,25 to 75,1000 to 10000,–
"O=C(OC(C(F)(F)F)C(F)(F)F)N1CC2CN(Cc3ccc(C(F)F)cc3N3CCCCC3)CC2C1 (stereo not drawn) [Example 204, 1,1,1,3,3,3-hexafluoropropan-2-yl 5-(4-(difluoromethyl)-2-(piperidin-1-yl)benzyl)hexahydropyrrolo[3,4-c]pyrrole-2(1H)-carboxylate]",< 100,> 75,1000 to 10000,< 25,< 25,1000 to 10000,–
"O=C(OC(C(F)(F)F)C(F)(F)F)N1CC2CN(Cc3ccc(Cl)cc3N3CCCC3)CC2C1 (stereo not drawn) [Example 19, 1,1,1,3,3,3-Hexafluoropropan-2-yl 5-[[4-chloro-2-(pyrrolidin-1-yl)phenyl]methyl]-octahydropyrrolo[3,4-c]pyrrole-2-carboxylate]",< 100,> 75,1000 to 10000,< 25,25 to 75,1000 to 10000,–
"CC1COCCN1c1ccc(CN2CC3CN(C(=O)OC(C(F)(F)F)C(F)(F)F)CC3C2)c(F)c1 (stereo not drawn) [Example 25, 1,1,1,3,3,3-Hexafluoropropan-2-yl 5-[[2-fluoro-4-(3-methylmorpholin-4-yl)phenyl]methyl]-octahydropyrrolo[3,4-c]pyrrole-2-carboxylate]",< 100,> 75,1000 to 10000,25 to 75,25 to 75,1000 to 10000,–
"O=C(ON1C(=O)CCC1=O)N1CC2CN(Cc3cccc(-c4ccccc4)c3)CC2C1 (stereo not drawn) [Example 88, 2,5-Dioxopyrrolidin-1-yl 5-[(3-phenylphenyl)methyl]-octahydropyrrolo[3,4-c]pyrrole-2-carboxylate]",< 100,> 75,1000 to 10000,25 to 75,> 75,100 to 1000,–
"Cc1c(CN2CC3CN(C(=O)OC(C(F)(F)F)C(F)(F)F)CC3C2)cccc1N1CCC(NS(C)(=O)=O)CC1 (stereo not drawn) [Example 149, 1,1,1,3,3,3-hexafluoropropan-2-yl 5-[[3-(4-methanesulfonamidopiperidin-1-yl)-2-methylphenyl]methyl]-octahydropyrrolo[3,4-c]pyrrole-2-carboxylate]",< 100,> 75,1000 to 10000,< 25,25 to 75,1000 to 10000,–
"O=C(OC(C(F)(F)F)C(F)(F)F)N1CC2CN(Cc3cc(CN4CCCC4)cc(OC(F)(F)F)c3)CC2C1 (stereo not drawn) [Example 185, 1,1,1,3,3,3-hexafluoropropan-2-yl 5-(3-(pyrrolidin-1-ylmethyl)-5-(trifluoromethoxy)benzyl)hexahydropyrrolo[3,4-c]pyrrole-2(1H)-carboxylate]",100 to 1000,> 75,1000 to 10000,< 25,< 25,> 10000,–
